How the values were obtained:
Assay type in all cases: cell-based
[1] = target: T1, human TLR9 (Homo sapiens, UniProt Q9NR96); assay: TLR9 inhibition reporter assay (HEK-Blue cells, SEAP reporter, ODN2006 stimulation); details: HEK-Blue cells overexpressing human TLR9, SEAP reporter, ODN2006 5 nM
T1 construct: host or cells: HEK-Blue cells
T1 sequence (Q9NR96 26-1032): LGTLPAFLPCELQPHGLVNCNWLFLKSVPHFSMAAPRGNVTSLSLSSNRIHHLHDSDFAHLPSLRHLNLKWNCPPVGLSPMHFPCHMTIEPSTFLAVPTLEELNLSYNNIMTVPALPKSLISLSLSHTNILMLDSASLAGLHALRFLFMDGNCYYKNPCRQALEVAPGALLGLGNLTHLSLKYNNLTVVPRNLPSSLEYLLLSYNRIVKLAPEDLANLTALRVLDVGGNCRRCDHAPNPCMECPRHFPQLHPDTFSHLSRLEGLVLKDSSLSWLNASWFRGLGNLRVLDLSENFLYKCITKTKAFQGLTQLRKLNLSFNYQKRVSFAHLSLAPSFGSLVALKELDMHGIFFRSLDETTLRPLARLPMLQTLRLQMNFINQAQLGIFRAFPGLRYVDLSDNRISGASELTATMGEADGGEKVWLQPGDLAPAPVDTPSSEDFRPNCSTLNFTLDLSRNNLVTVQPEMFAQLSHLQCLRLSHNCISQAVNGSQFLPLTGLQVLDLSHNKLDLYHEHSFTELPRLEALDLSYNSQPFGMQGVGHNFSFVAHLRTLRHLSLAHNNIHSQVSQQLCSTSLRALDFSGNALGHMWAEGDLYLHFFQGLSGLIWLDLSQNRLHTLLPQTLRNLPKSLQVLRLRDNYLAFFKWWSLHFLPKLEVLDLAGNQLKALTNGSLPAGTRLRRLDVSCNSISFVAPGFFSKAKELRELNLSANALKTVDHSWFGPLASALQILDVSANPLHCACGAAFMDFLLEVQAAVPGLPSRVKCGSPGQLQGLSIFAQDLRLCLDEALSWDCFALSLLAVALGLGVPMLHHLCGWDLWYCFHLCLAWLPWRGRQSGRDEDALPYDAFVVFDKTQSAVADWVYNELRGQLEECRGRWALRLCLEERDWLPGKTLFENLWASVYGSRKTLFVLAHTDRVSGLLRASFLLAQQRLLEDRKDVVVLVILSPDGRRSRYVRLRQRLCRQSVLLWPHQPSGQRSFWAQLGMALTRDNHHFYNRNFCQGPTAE
In short: (§1)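 HEK-Blue cells overexpressing human TLR7, TLR8 or TLR9, with an NF-κB/AP-1-driven SEAP reporter, pre-treated 30 min at room temperature with compound (0.05 nM-50 μM final). Stimulated with 7.5 μM gardiquimod (TLR7), 15.9 μM R848 (TLR8) or 5 nM ODN2006 (TLR9), then 22 h at 37° C. SEAP read with HEK-Blue Detection; % inhibition set against agonist+DMSO and known-inhibitor wells.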

[2] = target: T2, human TLR8 (Homo sapiens, UniProt Q9NR97); assay: TLR8 inhibition reporter assay (HEK-Blue cells, SEAP reporter, R848 stimulation); details: HEK-Blue cells overexpressing human TLR8, SEAP reporter, R848 15.9 μM
T2 construct: host or cells: HEK-Blue cells
T2 sequence (Q9NR97 27-1041): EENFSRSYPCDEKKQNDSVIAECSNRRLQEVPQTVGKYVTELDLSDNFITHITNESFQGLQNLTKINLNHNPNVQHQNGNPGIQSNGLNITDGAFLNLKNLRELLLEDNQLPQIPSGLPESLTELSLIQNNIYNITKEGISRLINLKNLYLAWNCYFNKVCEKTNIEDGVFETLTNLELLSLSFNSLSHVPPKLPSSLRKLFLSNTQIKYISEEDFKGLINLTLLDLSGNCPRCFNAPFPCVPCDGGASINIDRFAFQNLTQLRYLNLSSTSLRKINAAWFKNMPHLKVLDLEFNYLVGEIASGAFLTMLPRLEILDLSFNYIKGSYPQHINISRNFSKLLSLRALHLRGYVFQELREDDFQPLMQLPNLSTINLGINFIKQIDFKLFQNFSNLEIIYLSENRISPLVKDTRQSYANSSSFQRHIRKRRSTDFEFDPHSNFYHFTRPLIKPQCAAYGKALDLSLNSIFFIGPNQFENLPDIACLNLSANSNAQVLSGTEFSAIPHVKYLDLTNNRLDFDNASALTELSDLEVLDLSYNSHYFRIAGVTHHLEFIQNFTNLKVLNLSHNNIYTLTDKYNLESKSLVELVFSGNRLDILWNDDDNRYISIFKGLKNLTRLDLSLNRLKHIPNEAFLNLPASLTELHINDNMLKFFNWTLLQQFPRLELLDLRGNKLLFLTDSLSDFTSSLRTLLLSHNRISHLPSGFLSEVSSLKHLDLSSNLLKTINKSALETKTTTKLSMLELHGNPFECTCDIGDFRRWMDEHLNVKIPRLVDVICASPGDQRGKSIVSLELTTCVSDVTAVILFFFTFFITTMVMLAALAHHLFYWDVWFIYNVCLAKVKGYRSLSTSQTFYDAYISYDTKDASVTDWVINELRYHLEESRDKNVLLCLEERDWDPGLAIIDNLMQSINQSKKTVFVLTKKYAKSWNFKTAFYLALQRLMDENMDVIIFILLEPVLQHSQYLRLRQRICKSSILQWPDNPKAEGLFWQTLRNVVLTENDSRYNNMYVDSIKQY
In short: as §1

[3] = target: T3, human TLR7 (Homo sapiens, UniProt Q9NYK1); assay: TLR7 inhibition reporter assay (HEK-Blue cells, SEAP reporter, gardiquimod stimulation); details: HEK-Blue cells overexpressing human TLR7, SEAP reporter, gardiquimod 7.5 μM
T3 construct: host or cells: HEK-Blue cells
T3 sequence (Q9NYK1 27-1049): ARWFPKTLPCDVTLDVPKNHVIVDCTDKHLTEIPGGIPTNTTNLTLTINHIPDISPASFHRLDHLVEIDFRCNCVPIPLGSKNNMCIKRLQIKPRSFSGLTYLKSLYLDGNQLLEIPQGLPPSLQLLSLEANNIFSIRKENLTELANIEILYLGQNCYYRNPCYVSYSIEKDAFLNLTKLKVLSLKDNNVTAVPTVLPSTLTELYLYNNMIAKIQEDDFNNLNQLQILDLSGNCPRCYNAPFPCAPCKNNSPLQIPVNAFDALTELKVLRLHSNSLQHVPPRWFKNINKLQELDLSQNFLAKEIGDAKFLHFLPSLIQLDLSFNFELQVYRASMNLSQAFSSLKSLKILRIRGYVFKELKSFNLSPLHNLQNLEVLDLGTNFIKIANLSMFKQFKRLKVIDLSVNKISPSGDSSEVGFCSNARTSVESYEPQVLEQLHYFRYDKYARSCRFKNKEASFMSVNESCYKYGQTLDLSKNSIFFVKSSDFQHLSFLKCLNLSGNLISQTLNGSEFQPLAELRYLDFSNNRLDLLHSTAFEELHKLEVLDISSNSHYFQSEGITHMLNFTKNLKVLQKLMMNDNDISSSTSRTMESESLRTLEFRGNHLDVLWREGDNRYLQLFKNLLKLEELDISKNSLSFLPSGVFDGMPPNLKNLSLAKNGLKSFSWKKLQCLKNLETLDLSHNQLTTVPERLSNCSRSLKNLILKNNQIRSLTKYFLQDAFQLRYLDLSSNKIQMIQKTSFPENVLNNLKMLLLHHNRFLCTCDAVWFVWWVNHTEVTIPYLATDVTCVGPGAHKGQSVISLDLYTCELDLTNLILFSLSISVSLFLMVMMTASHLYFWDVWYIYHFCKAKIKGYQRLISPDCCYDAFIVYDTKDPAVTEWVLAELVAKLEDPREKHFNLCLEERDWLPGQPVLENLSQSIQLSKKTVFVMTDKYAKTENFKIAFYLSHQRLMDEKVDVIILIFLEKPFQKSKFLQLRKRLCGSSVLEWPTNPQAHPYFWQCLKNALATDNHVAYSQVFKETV
In short: as §1

Structure (SMILES) | IC50 [1] | IC50 [2] | IC50 [3]
COc1cc(-c2[nH]nc(-c3ccc(C4CCN(C(C)C)CC4)cn3)c2C(C)C)cn2ncnc12 [Example 350] | 21700 nM | 0.12 nM | 8.11 nM
Cc1cc(-c2[nH]nc(-c3ccc(C4CCN(C)CC4)nn3)c2C(C)C)cn2ncnc12 [Example 357] | 38100 nM | > 3130 nM | 1280 nM
Cc1cc(-c2[nH]nc(-c3ccc(C4CCN(C)CC4)nc3)c2C(C)C)cn2ncnc12 [Example 359] | > 50000 nM | > 3130 nM | 1120 nM
CCN1CCC(c2ccc(-c3n[nH]c(-c4cc(C)c5ncnn5c4)c3C(C)C)cn2)CC1 [Example 360] | > 50000 nM | 1330 nM | 1220 nM
Cc1cc(-c2[nH]nc(-c3ccc(C4CCN(C(C)C)CC4)nc3)c2C(C)C)cn2ncnc12 [Example 361] | 45600 nM | > 3130 nM | 719 nM
Cc1cc(-c2[nH]nc(-c3ccc(C4CCN(C5COC5)CC4)nc3)c2C(C)C)cn2ncnc12 [Example 362] | 25100 nM | > 3130 nM | > 3130 nM
CCN1CCC(c2ccc(-c3n[nH]c(-c4cc(C)c5ncnn5c4)c3C(C)C)nc2)CC1 [Example 366] | 6260 nM | > 3130 nM | > 3130 nM
Cc1cc(-c2[nH]nc(-c3ncc(C4CCN(C)CC4)cn3)c2C(C)C)cn2ncnc12 [Example 368] | 5460 nM | 28.1 nM | 10.5 nM
CCN1CCC(c2cnc(-c3n[nH]c(-c4cc(C)c5ncnn5c4)c3C(C)C)nc2)CC1 [Example 369] | 46900 nM | 33 nM | 18 nM
Cc1cc(-c2[nH]nc(-c3ncc(C4CCN(C(C)C)CC4)cn3)c2C(C)C)cn2ncnc12 [Example 370] | 6440 nM | 1.38 nM | 12.4 nM
Cc1cc(-c2[nH]nc(-c3ncc(C4CCN(CC(C)(C)C)CC4)cn3)c2C(C)C)cn2ncnc12 [Example 371] | > 50000 nM | 29.4 nM | 72.1 nM
Cc1cc(-c2[nH]nc(-c3ncc(C4CCN(C(C)C(C)C)CC4)cn3)c2C(C)C)cn2ncnc12 (stereo not drawn) [Example 372] | 8880 nM | 2.49 nM | 10.7 nM
Cc1cc(-c2[nH]nc(-c3ccc(C4CCN(CC(C)(C)C)CC4)cn3)c2C(C)C)cn2ncnc12 [Example 373] | 42100 nM | 34.5 nM | 81.9 nM
COc1cc(-c2[nH]nc(-c3ccc(C4CCN(CC5CC5)CC4)cn3)c2C(C)C)cn2ncnc12 [Example 374] | 41500 nM | 9.33 nM | 11.7 nM
COc1cc(-c2[nH]nc(-c3ccc(C4CCN(CC5CCOCC5)CC4)cn3)c2C(C)C)cn2ncnc12 [Example 375] | 35600 nM | 8.4 nM | 19.9 nM
COc1cc(-c2[nH]nc(-c3cnc(C4CCN(CC5CCOCC5)CC4)cn3)c2C(C)C)cn2ncnc12 [Example 376] | 6300 nM | 2.8 nM | 4.54 nM
COc1cc(-c2[nH]nc(-c3cnc(C4CCN(CC5CCC5)CC4)cn3)c2C(C)C)cn2ncnc12 [Example 377] | > 50000 nM | 18.2 nM | 56.9 nM
COc1cc(-c2[nH]nc(-c3cnc(C4CCN(CC5CC5)CC4)cn3)c2C(C)C)cn2ncnc12 [Example 378] | > 50000 nM | 12.2 nM | 29.4 nM
COc1cc(-c2[nH]nc(-c3cnc(C4CCN(CC(C)C)CC4)cn3)c2C(C)C)cn2ncnc12 [Example 379] | 28000 nM | 22.9 nM | 55.7 nM
COc1cc(-c2[nH]nc(-c3cnc(C4CCN(C5CCOCC5)CC4)cn3)c2C(C)C)cn2ncnc12 [Example 380] | 6520 nM | 5.07 nM | 11.5 nM
COc1cc(-c2[nH]nc(-c3cnc(C4CCN(C)CC4)cn3)c2C(C)C)cn2ncnc12 [Example 381] | 5880 nM | 9.06 nM | 11.1 nM
CCN1CCC(c2cnc(-c3n[nH]c(-c4cc(OC)c5ncnn5c4)c3C(C)C)cn2)CC1 [Example 382] | 9860 nM | 2.33 nM | 2.32 nM
CCCN1CCC(c2cnc(-c3n[nH]c(-c4cc(OC)c5ncnn5c4)c3C(C)C)cn2)CC1 [Example 383] | 47000 nM | 3.51 nM | 17.5 nM
COc1cc(-c2[nH]nc(-c3cnc(C4CCN(C(C)C)CC4)cn3)c2C(C)C)cn2ncnc12 [Example 384] | > 50000 nM | 20.1 nM | 39.5 nM
COc1cc(-c2[nH]nc(-c3cnc(C4CCN(C5COC5)CC4)cn3)c2C(C)C)cn2ncnc12 [Example 385] | > 50000 nM | 31.4 nM | 58.8 nM
CCC(CC)N1CCC(c2cnc(-c3n[nH]c(-c4cc(OC)c5ncnn5c4)c3C(C)C)cn2)CC1 [Example 386] | 9560 nM | 3.56 nM | 10.3 nM
